From paper PMC5591292, “Identification of Purple Acid Phosphatases in Chickpea and Potential Roles of CaPAP7 in Seed Phytate Accumulation” (Scientific Reports, 2017)

Molecular target: T1, CaPAP7 (Cicer arietinum, UniProt A0A1S2YHG0)
T1 construct: gene PAP7; ORF PCR product of 1008 bp (about 335 residues) in pET28a, E. coli BL21(DE3) pLysS, Ni-NTA purified, ~38 kDa on SDS-PAGE; signal peptide predicted but protein cytoplasmic
T1 sequence (A0A1S2YHG0 1-335): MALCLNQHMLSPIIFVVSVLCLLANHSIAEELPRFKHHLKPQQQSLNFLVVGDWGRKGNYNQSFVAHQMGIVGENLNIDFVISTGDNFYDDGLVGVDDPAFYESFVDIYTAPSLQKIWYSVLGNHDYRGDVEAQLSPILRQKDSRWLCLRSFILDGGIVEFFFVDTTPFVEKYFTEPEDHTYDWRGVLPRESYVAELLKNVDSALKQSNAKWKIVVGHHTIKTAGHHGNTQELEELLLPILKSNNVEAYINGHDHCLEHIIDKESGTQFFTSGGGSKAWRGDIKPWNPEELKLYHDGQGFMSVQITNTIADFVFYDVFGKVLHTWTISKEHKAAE
Assay: phosphatase activity assay, […] min
Type: biochemical
Conditions: 10 mM substrate, 37 °C; maximum activity among substrates tested

O=P(O)(O)O[C@H]1[C@H](OP(=O)(O)O)[C@@H](OP(=O)(O)O)[C@H](OP(=O)(O)O)[C@@H](OP(=O)(O)O)[C@H]1OP(=O)(O)O [phytic acid]
phosphatase activity assay, 30 min: it exhibited maximum catalytic activity for phytic acid
